# Results from the CheMixHub ionic liquid set.
# ± gives the uncertainty stated by the source.
# Assay: xn = mol fraction of the nth substance listed
# Details: 101 kPa
compound,measurement,setting,value
CCCCCC(=O)[O-].C[NH+](C)Cc1ccccc1 + CN(C)C=O,viscosity,"293.15 K, x1 = 0.005406",0.956 ± 0.058 mPa·s
same,viscosity,"293.15 K, x1 = 0.008974",0.969 ± 0.059 mPa·s
same,viscosity,"293.15 K, x1 = 0.01235",0.978 ± 0.059 mPa·s
same,viscosity,"293.15 K, x1 = 0.01781",1.002 ± 0.061 mPa·s
same,viscosity,"293.15 K, x1 = 0.01976",1 ± 0.06 mPa·s
same,viscosity,"293.15 K, x2 = 0.9681",1.042 ± 0.063 mPa·s
same,viscosity,"293.15 K, x2 = 0.9717",1.03 ± 0.062 mPa·s
same,viscosity,"293.15 K, x2 = 0.9757",1.02 ± 0.062 mPa·s
same,viscosity,"298.15 K, x1 = 0.005406",0.916 ± 0.055 mPa·s
same,viscosity,"298.15 K, x1 = 0.008974",0.927 ± 0.056 mPa·s
same,viscosity,"298.15 K, x1 = 0.01235",0.934 ± 0.056 mPa·s
same,viscosity,"298.15 K, x1 = 0.01781",0.955 ± 0.058 mPa·s
same,viscosity,"298.15 K, x1 = 0.01976",0.954 ± 0.058 mPa·s
same,viscosity,"298.15 K, x2 = 0.9681",0.99 ± 0.06 mPa·s
same,viscosity,"298.15 K, x2 = 0.9717",0.98 ± 0.059 mPa·s
same,viscosity,"298.15 K, x2 = 0.9757",0.971 ± 0.059 mPa·s
same,viscosity,"303.15 K, x1 = 0.005406",0.879 ± 0.053 mPa·s
same,viscosity,"303.15 K, x1 = 0.008974",0.889 ± 0.054 mPa·s
same,viscosity,"303.15 K, x1 = 0.01235",0.895 ± 0.054 mPa·s
same,viscosity,"303.15 K, x1 = 0.01781",0.913 ± 0.055 mPa·s
same,viscosity,"303.15 K, x1 = 0.01976",0.913 ± 0.055 mPa·s
same,viscosity,"303.15 K, x2 = 0.9681",0.945 ± 0.057 mPa·s
same,viscosity,"303.15 K, x2 = 0.9717",0.935 ± 0.057 mPa·s
same,viscosity,"303.15 K, x2 = 0.9757",0.928 ± 0.056 mPa·s
same,viscosity,"308.15 K, x1 = 0.005406",0.847 ± 0.051 mPa·s
same,viscosity,"308.15 K, x1 = 0.008974",0.855 ± 0.052 mPa·s
same,viscosity,"308.15 K, x1 = 0.01235",0.861 ± 0.052 mPa·s
same,viscosity,"308.15 K, x1 = 0.01781",0.877 ± 0.053 mPa·s
same,viscosity,"308.15 K, x1 = 0.01976",0.877 ± 0.053 mPa·s
same,viscosity,"308.15 K, x2 = 0.9681",0.905 ± 0.055 mPa·s
same,viscosity,"308.15 K, x2 = 0.9717",0.896 ± 0.054 mPa·s
same,viscosity,"308.15 K, x2 = 0.9757",0.89 ± 0.054 mPa·s
same,viscosity,"313.15 K, x1 = 0.005406",0.818 ± 0.049 mPa·s
same,viscosity,"313.15 K, x1 = 0.008974",0.825 ± 0.05 mPa·s
same,viscosity,"313.15 K, x1 = 0.01235",0.83 ± 0.05 mPa·s
same,viscosity,"313.15 K, x1 = 0.01781",0.844 ± 0.051 mPa·s
same,viscosity,"313.15 K, x1 = 0.01976",0.844 ± 0.051 mPa·s
same,viscosity,"313.15 K, x2 = 0.9681",0.869 ± 0.053 mPa·s
same,viscosity,"313.15 K, x2 = 0.9717",0.862 ± 0.052 mPa·s
same,viscosity,"313.15 K, x2 = 0.9757",0.856 ± 0.052 mPa·s
same,viscosity,"318.15 K, x1 = 0.005406",0.792 ± 0.048 mPa·s
same,viscosity,"318.15 K, x1 = 0.008974",0.798 ± 0.048 mPa·s
same,viscosity,"318.15 K, x1 = 0.01235",0.803 ± 0.049 mPa·s
same,viscosity,"318.15 K, x1 = 0.01781",0.815 ± 0.049 mPa·s
same,viscosity,"318.15 K, x1 = 0.01976",0.816 ± 0.049 mPa·s
same,viscosity,"318.15 K, x2 = 0.9681",0.837 ± 0.051 mPa·s
same,viscosity,"318.15 K, x2 = 0.9717",0.831 ± 0.05 mPa·s
same,viscosity,"318.15 K, x2 = 0.9757",0.826 ± 0.05 mPa·s
same,viscosity,"323.15 K, x1 = 0.005406",0.769 ± 0.046 mPa·s
same,viscosity,"323.15 K, x1 = 0.008974",0.774 ± 0.047 mPa·s
same,viscosity,"323.15 K, x1 = 0.01235",0.778 ± 0.047 mPa·s
same,viscosity,"323.15 K, x1 = 0.01781",0.789 ± 0.048 mPa·s
same,viscosity,"323.15 K, x1 = 0.01976",0.79 ± 0.048 mPa·s
same,viscosity,"323.15 K, x2 = 0.9681",0.809 ± 0.049 mPa·s
same,viscosity,"323.15 K, x2 = 0.9717",0.803 ± 0.049 mPa·s
same,viscosity,"323.15 K, x2 = 0.9757",0.799 ± 0.048 mPa·s
same,viscosity,"328.15 K, x1 = 0.005406",0.748 ± 0.045 mPa·s
same,viscosity,"328.15 K, x1 = 0.008974",0.752 ± 0.045 mPa·s
same,viscosity,"328.15 K, x1 = 0.01235",0.755 ± 0.046 mPa·s
same,viscosity,"328.15 K, x1 = 0.01781",0.765 ± 0.046 mPa·s
same,viscosity,"328.15 K, x1 = 0.01976",0.766 ± 0.046 mPa·s
same,viscosity,"328.15 K, x2 = 0.9681",0.784 ± 0.047 mPa·s
same,viscosity,"328.15 K, x2 = 0.9717",0.778 ± 0.047 mPa·s
same,viscosity,"328.15 K, x2 = 0.9757",0.774 ± 0.047 mPa·s
